The source of these data is patent publication US7884215B2, “2-substituted benzimidazoles” (priority 2005, dated 2011).

The test system of the experiment is Respiratory Syncytial Virus. Briefly: microbe, parasite or virus in culture. The format is cell-based. The settings on record: human respiratory syncytial virus, 168 h; antiviral activity; protection against cytopathology caused by RSV in HeLa cells, MTT read-out seven days after infection. How it is done: The percent protection against cytopathology caused by viruses (antiviral activity or EC50) achieved by tested compounds and their cytotoxicity (CC50) are both calculated from dose-response curves.
Automated tetrazolium-based colorimetric assays were used for determination of EC50 and CC50 of test compounds. […] Subsequently, stock solutions (7.8× final test concentration) of compounds were added in 45 μl volumes to a series of triplicate wells so as to allow simultaneous evaluation of their effects on virus- and mock-infected cells. Five five-fold dilutions were made directly in the microtiter trays using a robot system. Untreated virus controls, and HeLa cell controls were included in each test. Approximately 100 TCID50 of Respiratory Syncytial Virus was added to two of the three rows in a volume of 50 μl. The same volume of medium was added to the third row to measure the cytotoxicity of the compounds at the same concentrations as those used to measure the antiviral activity. […] Finally, the absorbances were read in an eight-channel computer-controlled photometer (Multiskan MCC, Flow Laboratories) at two wavelengths (540 and 690 nm). The absorbance measured at 690 nm was automatically subtracted from the absorbance at 540 nm, so as to eliminate the effects of non-specific absorption.

Take `Cc1ccc(CCCO)c(NCc2ccc3nc(C(N)=O)n(Cc4nc(C)ccc4O)c3c2)c1` [d-10]: the concentration giving a half-maximal response (EC50) was 631 nM.

What is called EC50 is the concentration that produces a half-maximal response.
